Among the data in ChEMBL document CHEMBL5233255, “Natural and nature-inspired stilbenoids as antiviral agents” (Eur J Med Chem, 2020) are IC50 values, retold here.

Holding throughout (assay type): functional, organism-based
For test [1], the system named is Human alphaherpesvirus 1. Description: Antiviral activity against HSV-1 7401H infected in African green monkey Vero cells incubated for 2 days by plaque reduction assay. The conditions noted are these: Human alphaherpesvirus 1, 7401H.
The test system of a further test is Human alphaherpesvirus 2. Briefly: Antiviral activity against HSV-2 Baylor 186 infected in African green monkey Vero cells incubated for 2 days by plaque reduction assay. The conditions noted are these: Human alphaherpesvirus 2, Baylor 186, Vero, 48 h. Background: In a plaque reduction assay, fewer plaques than in the control indicate reduced infectivity or spread.

The test system of test [2] is Human alphaherpesvirus 1. Description: Antiviral activity against HSV-1 KOS infected in African green monkey Vero cells incubated for 2 days by plaque reduction assay. The conditions noted are these: Human alphaherpesvirus 1, KOS, 48 h.

Values after ≈ are worked out from the molar mass of the structure shown.

In general, IC50 refers to the midpoint of a concentration-inhibition curve. Consider `Oc1cc(O)cc(/C=C/c2ccc(O)cc2O)c1` [OXYRESVERATROL], for which the IC50 with Human alphaherpesvirus 1 [1] came out at 19.8 µg/mL (≈ 81.1 µM); with Human alphaherpesvirus 2 it was 18.7 µg/mL (≈ 76.6 µM); in the test on Human alphaherpesvirus 1 [2], 24 µg/mL (≈ 98.3 µM).
